According to article PMC10326435, “Antiprotozoal activity of natural products from Nigerien plants used in folk medicine” (Frontiers in Pharmacology, 2023):
Where “and” joins values, the source holds several entries; their conditions need not be identical. Identical values can stand only once. Like-named read-outs stand apart in the source and are kept apart here.

Experiments:
[1] = tested on: P. falciparum (NF54, intraerythrocytic); assay: in vitro activity on P. falciparum, serial dilution assay; type: cell-based, Plasmodium falciparum; settings: for IC50: Plasmodium falciparum, read-out: IC50 P. falciparum; for Selectivity index (SI) P. falciparum: SI = IC50 cytotoxicity (L6)/IC50 in P. falciparum
Description: (§1) The in vitro activity was assessed on T. b. rhodesiense (STIB900, trypomastigotes), T. cruzi (Tulahuen C2C4, intracellular amastigotes), L. donovani (MHOM-ET-67/L82, axenically grown amastigotes), P. falciparum (NF54, intraerythrocytic), and L6 cells (ATCC, CRL-1458™, rat skeletal myoblasts) as previously described ([Bernal et al., 2020]). The activities were determined in serial dilution assays with 72 h compound exposure, respectively 96 h for intracellular T. cruzi. Results are expressed in µg/mL for extracts and in µM for pure compounds. The IC50 values were determined for the compounds only when they were <50 µM.

[2] = cytotoxicity in L6 cells; type: cell-based, rat
Description: as §1

[3] = tested on: T. cruzi (Tulahuen C2C4, intracellular amastigotes); assay: in vitro activity on T. cruzi, serial dilution assay; type: cell-based, Trypanosoma cruzi; settings: for IC50: Trypanosoma cruzi, TULAHUEN; for Selectivity index (SI) T. cruzi: SI = IC50 cytotoxicity (L6)/IC50 in T. cruzi
Description: as §1

[4] = tested on: L. donovani (MHOM-ET-67/L82, axenically grown amastigotes); assay: in vitro activity on L. donovani, serial dilution assay; type: cell-based, Leishmania donovani; settings: for IC50: Leishmania donovani; for Selectivity index (SI) L. donovani: SI = IC50 cytotoxicity (L6)/IC50 in L. donovani
Description: as §1

[5] = tested on: T. b. rhodesiense (STIB900, trypomastigotes); assay: in vitro activity on T. b. rhodesiense, serial dilution assay; type: cell-based, Trypanosoma brucei rhodesiense; settings: for Selectivity index (SI) T. b. rhodesiense: SI = IC50 cytotoxicity (L6)/IC50 in T. b. rhodesiense; for IC50: Trypanosoma brucei
Description: as §1

[6] = NF54, 72 h, 72 h exposure, means of two independent assays ± deviation from the mean
[7] = 96 h, 96 h exposure, means of two independent assays ± deviation from the mean, read-out: IC50 T. cruzi
[8] = 72 h, axenic amastigotes, 72 h exposure, means of two independent assays ± deviation from the mean, read-out: IC50 L. donovani
[9] = 72 h, 72 h exposure, means of two independent assays ± deviation from the mean, read-out: IC50 T. b. rhodesiense
[10] = inactive, read-out: IC50 T. cruzi (inactive)
[11] = inactive, read-out: IC50 L. donovani (inactive)
[12] = inactive, read-out: IC50 T. b. rhodesiense (inactive)
[13] = rat, L6 cells (rat skeletal myoblasts, ATCC CRL-1458), rat skeletal myoblast (L6 cells), 72 h exposure, means of two independent assays ± deviation from the mean, read-out: IC50 Cytotoxicity
[14] = rat skeletal myoblast (L6 cells), 72 h exposure, means of two independent assays ± deviation from the mean, read-out: IC50 Cytotoxicity
[15] = 72 h, read-out: IC50 L. donovani
[16] = 72 h exposure, means of two independent assays ± deviation from the mean, read-out: IC50 T. b. rhodesiense

| SMILES | IC50 [1, 6] [µM] | Selectivity index (SI) P. falciparum [1] | IC50 [3, 7] [µM] | IC50 [4, 8] [µM] | IC50 [5, 9] [µM] | Selectivity index (SI) L. donovani [4] | other results |
| --- | --- | --- | --- | --- | --- | --- | --- |
| COc1ccc2cc1/C=C\NC(=O)[C@H](Cc1ccccc1)NC(=O)[C@@H]1[C@H](CCN1C(=O)[C@@H](NC(=O)C(C)N(C)C)C(C)C)O2 (stereo in doubt) [Compound 10, amphibine H] | 15.1 ± 0.5 | > 5.3 | > 50 | > 50 | 30.4 ± 4.6 |  | IC50 at 72 h ([2]; rat, IC50 Cytotoxicity): > 50 µM; Selectivity index (SI) T. b. rhodesiense [5]: > 2.5 |
| O=C(Cn1ccnc1[N+](=O)[O-])NCc1ccccc1 [Benznidazole, reference compound] |  |  | 2.3 ± 0.2 |  |  |  | IC50 ([3]; 96 h, Table 2, 96 h exposure, means of two independent experiments, read-out: IC50 T. cruzi): 0.667 µg/mL |
| CCN(CC)CCCC(C)Nc1ccnc2cc(Cl)ccc12 (stereo not shown) [Chloroquine, reference compound] |  |  |  |  |  |  | IC50 ([1]; NF54, 72 h): 0.003 µg/mL and 9 nM |
| CCCCCCCCCCCCCCCC(=O)OCC(O)COP(=O)([O-])OCC[N+](C)(C)C (stereo not shown) [Compound 3, 1-palmitoyl-lysolecithin] | > 10 |  |  | > 20 | > 20 |  | IC50 at 72 h ([2]; rat, IC50 Cytotoxicity): > 20 µM; IC50 ([3]; 96 h, read-out: IC50 T. cruzi): 12.1 ± 2.4 µM |
| CC(C)[C@H](NC(=O)[C@H](C)N(C)C)C(=O)N1CC[C@@H]2Oc3ccc(cc3)/C=C\NC(=O)[C@H](Cc3ccccc3)NC(=O)[C@H]21 [Compound 5, mauritine A] |  |  |  |  |  |  | IC50 ([1]; NF54, abstract and b45 text): > 50 µM; IC50 [3, 10]: > 50 µM; IC50 [4, 11]: > 50 µM; IC50 [5, 12]: > 50 µM |
| CN[C@@H](Cc1ccccc1)C(=O)N[C@@H]1C(=O)N[C@@H](CC(C)C)C(=O)N/C=C\c2ccc(cc2)O[C@H]1C(C)C [Compound 7, sanjoinine B] | 23.1 ± 9 | > 6.0 | > 50 | > 50 | > 50 |  | IC50 at 72 h [2, 13]: > 50 µM |
| CCC(C)[C@@H]1NC(=O)[C@@H](NC(=O)[C@H](Cc2ccccc2)N(C)C)[C@H](C(C)C)Oc2ccc(cc2)/C=C\NC1=O (stereo partly shown) [Compound 8, lotusanine A] | > 50 |  | > 50 | > 50 | > 50 |  | IC50 at 72 h [2, 13]: > 50 µM |
| CC(C)C[C@@H]1NC(=O)[C@@H](NC(=O)[C@H](Cc2c[nH]c3ccccc23)N(C)C)[C@H](C(C)C)Oc2ccc(cc2)/C=C\NC1=O [Compound 9, nummularine K] | 20.7 ± 5.8 | 1.6 | 43.6 ± 7.1 | > 50 | 12.7 ± 3.8 |  | IC50 at 72 h [2, 13]: 33.6 ± 4.9 µM; Selectivity index (SI) T. cruzi [3]: 0.8; Selectivity index (SI) T. b. rhodesiense [5]: 2.7 |
| C=C(C)C12CCC3(CCC4(C)C(CCC5C6(C)C(C(=O)O)C(O)C(C)(C)C6CCC54C)C31)C(=O)O2 (stereo not shown) [Compound 13] | 29.1 ± 4.1 | > 3.7 | > 50 | 11.6 ± 2.4 | > 50 | > 9.3 | IC50 at 72 h ([2]; rat, IC50 Cytotoxicity): > 50 µM |
| C=C(C)[C@@H]1CC[C@]2(C(=O)O)CC[C@]3(C)[C@H](CC[C@@H]4[C@@]5(C)[C@H](C=O)[C@@H](O)C(C)(C)[C@@H]5CC[C@]43C)[C@@H]12 [Compound 14, colubrinic acid] |  | > 5.5 |  |  |  | > 45 | IC50 ([1]; NF54, 72 h): 15.3 ± 4.1 µM; IC50 at 72 h [2, 14]: > 50 µM; IC50 ([3]; 96 h, read-out: IC50 T. cruzi): > 50 µM; IC50 [4, 15]: 1.9 ± 0.4 µM; IC50 [5, 16]: > 50 µM |
| C=C(C)[C@@H]1CC[C@]2(C(=O)O)CC[C@]3(C(=O)O)[C@H](CC[C@@H]4[C@@]5(C)C=CC(C)(C)[C@@H]5CC[C@]43C)[C@@H]12 [Compound 17, ceanothenic acid] |  | > 8.0 |  |  |  | > 40 | IC50 ([1]; NF54, 72 h): 13.9 ± 4 µM; IC50 at 72 h [2, 14]: > 50 µM; IC50 ([3]; 96 h, read-out: IC50 T. cruzi): > 50 µM; IC50 [4, 15]: 2.6 ± 0.2 µM; IC50 [5, 16]: > 50 µM |
| C=C(C)[C@@H]1CC[C@]2(C(=O)O)CC[C@]3(C)[C@H](CC[C@@H]4[C@@]5(C)C[C@@H](O)[C@H](OC(=O)/C=C/c6ccc(O)cc6)C(C)(C)[C@@H]5CC[C@]43C)[C@@H]12 [Compound 18, 3-O-trans-p-coumaroylalphitolic acid] | 0.2 ± 0.04 | 79.0 | 19.5 ± 0.6 | 3 ± 0.2 | 25.9 ± 2.6 | 5.3 | IC50 at 72 h ([2]; rat, IC50 Cytotoxicity): 15.8 ± 6.4 µM; Selectivity index (SI) T. cruzi [3]: 0.8; Selectivity index (SI) T. b. rhodesiense [5]: 0.6 |
| CC(C)=CCC1=C(Cl)C(=O)c2c(O)ccc(O)c2C1=O [Compound 21] | 9.2 ± 2.1 | 0.9 | 21.5 ± 0.2 | 3 ± 0.4 | 0.5 ± 0.3 | 2.6 | IC50 at 72 h [2, 13]: 7.9 ± 1.3 µM; Selectivity index (SI) T. cruzi [3]: 0.4; Selectivity index (SI) T. b. rhodesiense [5]: 15.8 |
| C=C(C)[C@H](O)CC1=C(O)C(=O)c2c(O)ccc(O)c2C1=O [Compound 22] | > 50 |  | > 50 | 7.9 ± 0.9 | 36 ± 9.4 | 3.8 | IC50 at 72 h [2, 13]: 30.4 ± 10.6 µM; Selectivity index (SI) T. b. rhodesiense [5]: 0.8 |
| COC1=CC(=O)C=C(OC)C1=O [Compound 23] |  |  |  |  |  |  | IC50 ([1]; NF54, 72 h): 36.9 ± 15.4 µM; IC50 at 72 h [2, 14]: > 50 µM; IC50 ([3]; 96 h, read-out: IC50 T. cruzi): > 50 µM; IC50 [4, 15]: 15.1 ± 1 µM; IC50 [5, 16]: 9.3 ± 3.1 µM |
| CC(C)=CC[C@@]12O[C@@H]1C(O)c1c(O)ccc(O)c1C2=O (stereo partly shown) [Compound 25] | 14 ± 1.9 | 1.4 | > 50 | 12.7 ± 5.3 | 2.5 ± 0.1 | 1.5 | IC50 at 72 h [2, 13]: 19 ± 2.3 µM; Selectivity index (SI) T. b. rhodesiense [5]: 7.6 |
| CC(C)=CCCc1ccc2c(c1)C(=O)c1ccccc1C2=O [Compound 27] |  |  |  |  |  |  | IC50 ([1]; NF54, abstract and b45 text): > 50 µM; IC50 [3, 10]: > 50 µM; IC50 [4, 11]: > 50 µM; IC50 [5, 12]: > 50 µM |
| CC(C)=CCCc1ccc2c(c1O)C(=O)c1ccccc1C2=O [Compound 28] |  |  |  |  |  |  | IC50 ([1]; NF54, abstract and b45 text): > 50 µM; IC50 [3, 10]: > 50 µM; IC50 [4, 11]: > 50 µM; IC50 [5, 12]: > 50 µM |
| Nc1nc(N)nc(Nc2ccc([As]3SCC(CO)S3)cc2)n1 (stereo not shown) [Melarsoprol, reference compound] |  |  |  |  |  |  | IC50 ([5]; 72 h, read-out: IC50 T. b. rhodesiense): 0.005 µg/mL and 16 nM |
| CCCCCCCCCCCCCCCCOP(=O)([O-])OCC[N+](C)(C)C [Miltefosine, reference compound] |  |  |  | 0.52 ± 0.07 |  |  | IC50 ([4]; 72 h, Table 2, 72 h exposure, means of two (C. sieberiana three) independent experiments, read-out: IC50 L. donovani): 0.282 µg/mL |
| COc1cc([C@@H]2c3cc4c(cc3[C@H](O)[C@H]3COC(=O)[C@H]23)OCO4)cc(OC)c1OC [Podophyllotoxin, reference compound] |  |  |  |  |  |  | IC50 at 72 h ([2]; Table 2, rat skeletal myoblast (L6 cells), 72 h exposure, read-out: IC50 Cytotoxicity): 0.008 µg/mL |
